Assay results: BindingDB's records for doi:10.1021/jm049864b (Boehringer Ingelheim (Canada), 2004)
Where a SMILES comes first, the peptide text is derived from it. [ ]: non-standard residue; d: D form. Nva = CCC[C@H](N)C(=O)O

Target: T1, Genome polyprotein [1027-1206,R1052K]/[1678-1691] (Hepatitis C virus genotype 1b (isolate Japanese), UniProt P26662+Q9WMX2, R1052K)
T1 construct: 1027-1206; 1678-1691
Assay: HCV Protease Inhibition Assay
Conditions: pH 7.5; 23 °C

T1 sequence (Q9WMX2 1027-1206, looked up, stated change not applied, other chains not shown): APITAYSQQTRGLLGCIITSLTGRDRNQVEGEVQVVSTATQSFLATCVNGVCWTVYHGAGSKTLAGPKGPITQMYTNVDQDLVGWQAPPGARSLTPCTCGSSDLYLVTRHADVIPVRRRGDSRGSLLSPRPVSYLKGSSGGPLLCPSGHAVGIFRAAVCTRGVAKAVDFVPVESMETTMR

Compound `CCC[C@H](NC(=O)[C@@H]1CCCN1C(=O)[C@@H](NC(=O)[C@@H](NC(=O)[C@H](CC(=O)O)NC(=O)[C@H](CC(=O)O)NC(C)=O)[C@@H](C)CC)C(C)C)C(=O)O` [(2S)-2-{[(2S)-1-[(2S)-2-[(2S)-2-[(3S)-3-[(3S)-3-acetamido-3-formamidopropanoic acid]-3-formamidopropanoic acid]-3-methylpentanamido]-3-methylbutanoyl]pyrrolidin-2-yl]formamido}pentanoic acid] (Ac-DDIVP[Nva]-OH) has an IC50 of 150 µM.
